Patent US8003119B2, “Composition for pharmaceutical or dietetic use for combating hair loss” (Giuliani S.p.A., priority 2002, dated 2011)

Tests used:
Type in all cases: in vivo, man
[1] = test system: volunteers with telogenic defluvium; assay: Clinical study: trichogram (evaluation of the hair bulbs by phase)
Description: (§1) This controlled, randomized double-blind study was performed according to the present invention by means of the protocols below.
(§2) Sixty volunteers of both sexes and ranging between 18 and 60 years old were divided into three groups of 20 individuals each, all having the same level of pathology, i.e. telogenic defluvium existing for at least 2 months.
(§3) Some of these individuals were treated for 60 days with one capsule a day of a composition of the invention, according to the following scheme:
(§4) Group 1: 20 individuals treated with a composition of the invention containing spermidine alone (0.50 mg per capsule).
(§5) Group 2: 20 individuals treated with a composition of the invention according to Example 1 described later (spermidine 0.50 mg per capsule).
(§6) Group 3: 20 individuals treated with a placebo, in capsules.
(§7) The parameters evaluated were the following: • A) General dermatological visit. • B) Microscopic evaluation of the shaft of the hairs (diameter and possible structural changes in the hair). • C) Trichogram, i.e. evaluation of the bulbs in the anagenic (growth) phase, catagenic (involutive stasis) phase, telogenic (pathological precocious hair loss) phase and exogenic (physiological loss of hairs since they are replaced with new hairs). • D) Haematochemical analysis. • E) Pull test (mechanical tensile strength of the hair). • F) Wash test (count of the hairs lost after washing with shampoo). • G) Possible side effects.
(§8) These parameters were evaluated at time T0 (before the start of the treatment); at time T1 (at the end of the 60 days of treatment); and finally at time T2 (30 days after stopping the administration).
In this regard, reference is made to the diagrams of FIGS. 1 and 2 in the attached drawings. These show the trichogram of the anagenic and telogenic phases at times T0 (before the start of the treatment); at time T1 (at the end of the 60 days of treatment); and finally at time T2 (30 days after stopping the administration) for the individuals of the three groups, 1 (grey column), 2 (black column) and 3 (pale column). The percentage of hairs in the anagenic phase (FIG. 1) and in the telogenic phase (FIG. 2) for the treated individuals belonging to the three groups under consideration is shown on the y-axis, and the said times T are shown on the x-axis, under which are tabulated the said percentages found.

[2] = test system: volunteers with telogenic defluvium; assay: Clinical study: haematochemical analysis; conditions: oral, one capsule a day for 60 days
Description: as §1, §2, §3, §4
(§9) Group 2: 20 individuals treated with a composition of the invention according to Example 1 described later (spermidine 0.50 mg per capsule). […]
as §7, with “effects. […]” for “effects.”

[3] = test system: volunteers with telogenic defluvium; assay: Clinical study: general dermatological visit; conditions: oral, one capsule a day (spermidine 0.50 mg) for 60 days; compared with placebo group 3
Description: as §1, §2, §3, §4, §9
as §7, with “effects. […]” for “effects.”

[4] = test system: volunteers with telogenic defluvium; assay: Clinical study: pull test (mechanical tensile strength of the hair); conditions: oral, one capsule a day for 60 days; placebo virtually unchanged
Description: as §1, §2, §3, §4, §9
as §7, with “effects. […]” for “effects.”

[5] = test system: volunteers with telogenic defluvium; assay: Clinical study: microscopic evaluation of the hair shaft; conditions: oral, one capsule a day (spermidine 0.50 mg) for 60 days; placebo virtually unchanged
Description: as §1, §2, §3, §4, §9
as §7, with “effects. […]” for “effects.”

[6] = test system: volunteers with telogenic defluvium; assay: Clinical study: wash test (count and phase of hairs lost after shampoo)
Description: as §1, §2, §3, §4, §5, §6, §7, §8
This test makes it possible not only to quantify the number of hairs lost after shampooing, but also, by means of a suitable microscopic analysis, to evaluate the phase of the cycle in which the bulb was found when the hair fell out: pathological loss (telogenic) or phase of physiological exchange (exogenic).
The test results are given in the graph of FIG. 3 in the attached drawings. […]

[7] = oral, one capsule a day for 60 days, placebo not significantly changed

haematochemical analyses [2]: within the norm
SMILES: NCCCCNCCCN [spermidine, N-(3-aminopropyl)tetramethylenediamine]
increase in the anagenic phase at T1 ([1]; T1 = end of the 60 days of treatment, relative to T0, placebo 2.7%): 8.1%
decrease in the telogenic phase at T1 ([1]; T1 = end of the 60 days of treatment, placebo increased by about 1.88%): 9.1%
decrease in the telogenic phase at T2 ([1]; T2 = 30 days after stopping the 60-day administration, placebo 4.16%): 6.76%
increase in the anagenic phase at T2 relative to T0 ([1]; T2 = 30 days after stopping the 60-day administration, placebo 7.79%): 17.2%
number of bulbs in the anagenic phase (in words) [1, 7]: increases significantly
telogenic phase (in words) [1, 7]: decreases significantly
hair loss at dermatological visit [3]: appreciable and significant reduction in the hair loss
structure of the hair shaft at dermatological visit [3]: improvement in the structure of the shaft
mechanical tensile strength of the hair (pull test) [4]: increased significantly
diameter of the hair shaft [5]: increases quite substantially
lost hairs in the telogenic phase (pathological loss) ([6]; bulbs of hairs lost in the wash test, placebo more than 90%): 63%
lost hairs in the exogenic phase (physiological loss) ([6]; bulbs of hairs lost in the wash test, placebo only 3%): 33%
number of hairs lost in the wash test ([6]; oral, one capsule a day for 60 days, placebo unchanged): decreases significantly
